The values below come from patent publication US20050191247A1, “Chlorhexidine compositions” (priority 2004, published 2005).

SMILES strings stand for the structures. Like-named read-outs stand apart in the source and are kept apart here. Peptide text beside a SMILES is read from it.

One data set concerns S. mutans. Kind of data set: Test B: effect on ability of S. mutans to produce acid (culture pH over time). It counts as cell-based, Streptococcus mutans. The following applies: chlorhexidine 0.06%, cupric acetate and zinc chloride 0.1% w/v; TSB-YE with 1.0% glucose. As for the experimental part: Some oral bacteria are believed to cause cavities by producing acid in the mouth. Therefore, the ability of a composition to prevent and treat cavities can be measured by determining its effects on bacterial acid production.
Accordingly, the effect of representative compositions on the ability of S. mutans to produce acid was also assessed. Biofilms were exposed to CHX-Cu^++ or CHX-Zn^++ as described, then washed, harvested, and resuspended in sterile TSB-YE supplemented with 1.0% glucose at standardized concentrations. Changes in culture pH were measured over time. Representative results of these studies are illustrated in FIG. 3.
The chlorhexidine (CHX) used in the experiments depicted in FIG. 3 was made by diluting a chlorhexidine gluconate stock solution (Chlorhexidine gluconate 20% solution, B.P. supplied by Medisca, Inc., 661 Route #3, Unit C, Plattsburg, N.Y. 12901. Telephone 1-800-932-1039) with ultrapure water to form a 0.12% chlorhexidine digluconate solution. This strength mimics the concentration of chlorhexidine gluconate found in commercial rinses (Peridex®—Zila Pharmaceuticals 5227 N. 7th Street, Phoenix, Ariz. 85014. Telephone (602) 266-6700) available in the United States.
Chlorhexidine was at a concentration of 0.06%, and cupric acetate and zinc chloride were at concentrations of 0.1% w/v. Exposure of chlorhexidine alone had little effect on acid production. […]

For data set [1] the following is noted: 0.12% rinse; Drug Facts and Comparisons, 1999; cited from earlier work.
The next data set has as its system Suspensions of S. mutans. Kind of data set: Bactericidal activity in suspensions of S. mutans. It counts as cell-based, Streptococcus mutans. The following applies: within one hour of incubation; buffer control 10^6 cfu/ml.
For data set [2] the following is noted: cited from earlier work.
Data set [3] relates to Streptococcus mutans biofilms. Description: Test A: bactericidal activity in bacterial biofilm system. The note with it: flavoring or sweetening agent added to chlorhexidine composition. It counts as cell-based. How it is done: Rinse formulations were assessed for their bactericidal activity in a laboratory bacterial biofilm system. Streptococcus mutans biofilms were grown on slides in Trypticase Soy Broth supplemented with 0.5% Yeast Extract (TSB-YE), 1.0% glucose and 2.0% sucrose, and incubated for 48 hr in 5% CO2 at 37° C. Biofilms were exposed to the different formulations for 30 seconds with slow stirring. Biofilms were then extensively washed, harvested, and resuspended in fresh media. Samples were spiral-plated on Mitis-Salivarius agar. Numbers of viable bacteria were determined following standard spiral plating methodology.
The first series of experiments explored the effect of combinations of chlorhexidine-Cu^++ and chlorhexidine-Zn^++ on biofilms of Streptococcus mutans. The chlorhexidine (CHX) used in the experiments depicted in FIG. 1 was made by diluting a chlorhexidine gluconate stock solution (Chlorhexidine gluconate 20% solution, B.P. supplied by Medisca, Inc., 661 Route #3, Unit C, Plattsburg, N.Y. 12901. Telephone 1-800-932-1039) with ultrapure water to form a 0.12% chlorhexidine digluconate solution. […]
Biofilms of S. mutans were made by immersing slides in Trypticase Soy Broth-Yeast Extract (TSB-YE) supplemented with 1.0% glucose and 2.0% sucrose. […] Numbers of viable cells were determined by standard Spiral-plating methodology. […]

In the case of `[H]/N=C(\N/C(=N/[H])NCCCCCCNC(=N)NC(=N)Nc1ccc(Cl)cc1)Nc1ccc(Cl)cc1` [chlorhexidine], the “effect on acid production (pH curves)” value with S. mutans is given as “little effect”. Further, the “chlorhexidine retained in the oral cavity following rinsing” value in data set [1] is recorded as “Approximately 30%”.

For `N=C(NCCCCCCNC(=N)NC(=N)Nc1ccc(Cl)cc1)NC(=N)Nc1ccc(Cl)cc1.O=C(O)[C@H](O)[C@@H](O)[C@H](O)[C@H](O)CO.O=C(O)[C@H](O)[C@@H](O)[C@H](O)[C@H](O)CO` [Chlorhexidine gluconate (0.12% CHX)], in the data set with Suspensions of S. mutans, the “viable count after exposure” value is listed as 0 cfu/ml.

As to `COC(=O)[C@H](Cc1ccccc1)NC(=O)[C@@H](N)CC(=O)O` [aspartame] (HELM PEPTIDE1{D.F.[CO[*:1]]}$$$$V2.0), the solubility in water entry is given as “approximately 1%” in data set [2] (20° C.) and approximately 3% in data set [2] (50° C.). Also, the “effect of additive on the antibacterial activity of the chlorhexidine oral composition” value in data set [3] is given as “do not significantly decrease”.
